These results are taken from patent US6794386B2, “β-amino acid compounds as integrin antagonists” (Bayer Aktiengesellschaft, priority 2000, dated 2004).

This assay deals with T1, VLA-4 (Homo sapiens, UniProt P05556+P13612).
T1 construct: host or cells: Jurkat clone E6-1
Kind of assay: Adhesion of Jurkat cells to immobilized VCAM-1 (domains 1-3). Set-up: scale not given here. Type of assay: cell-based. The conditions noted are these: adhesion of CFSE-labeled Jurkat cells to recombinant human VCAM-1 (domains 1-3) coated plates, compounds as yielded by solid phase synthesis, purity about 40-90%. The procedure, abridged: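 CFSE-labelled Jurkat E6-1 cells in Tris buffer pH 7.4 with 2 mM MnCl2 were added to wells coated with insect-cell-expressed human VCAM-1 domains 1-3 (0.5 μg/ml coating solution); labelled cells were incubated for 30 min at 37 °C with the VLA-4 inhibitor.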

Where two headings read alike, the source gives them in different places. Where only a bound is given, the exact number is not on record here.

T1 sequence (P13612 34-1032): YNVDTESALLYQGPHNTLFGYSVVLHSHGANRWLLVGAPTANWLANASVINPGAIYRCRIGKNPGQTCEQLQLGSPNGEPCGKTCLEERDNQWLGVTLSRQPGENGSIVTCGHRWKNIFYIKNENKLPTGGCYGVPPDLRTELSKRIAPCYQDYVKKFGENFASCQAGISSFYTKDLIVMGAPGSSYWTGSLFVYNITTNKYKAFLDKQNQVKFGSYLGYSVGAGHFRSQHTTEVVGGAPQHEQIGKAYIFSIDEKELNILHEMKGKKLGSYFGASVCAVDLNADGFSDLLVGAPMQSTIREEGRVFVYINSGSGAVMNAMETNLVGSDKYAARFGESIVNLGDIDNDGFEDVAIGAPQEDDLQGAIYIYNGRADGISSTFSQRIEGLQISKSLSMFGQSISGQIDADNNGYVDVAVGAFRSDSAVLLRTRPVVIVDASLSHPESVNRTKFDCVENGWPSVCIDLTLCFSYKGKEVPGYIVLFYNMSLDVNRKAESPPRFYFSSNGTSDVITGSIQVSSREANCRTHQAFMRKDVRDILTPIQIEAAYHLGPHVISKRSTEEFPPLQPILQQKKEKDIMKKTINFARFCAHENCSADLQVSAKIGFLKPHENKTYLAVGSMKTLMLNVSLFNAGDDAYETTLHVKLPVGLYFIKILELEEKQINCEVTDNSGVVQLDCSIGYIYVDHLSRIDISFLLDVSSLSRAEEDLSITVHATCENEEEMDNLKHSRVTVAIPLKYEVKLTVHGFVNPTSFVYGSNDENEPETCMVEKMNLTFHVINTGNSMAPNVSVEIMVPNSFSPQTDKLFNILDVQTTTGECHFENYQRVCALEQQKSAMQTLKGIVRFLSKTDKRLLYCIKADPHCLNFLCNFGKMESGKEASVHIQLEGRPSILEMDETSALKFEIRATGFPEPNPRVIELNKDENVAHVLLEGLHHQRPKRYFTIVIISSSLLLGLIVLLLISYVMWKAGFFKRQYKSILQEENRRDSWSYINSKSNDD
T1 sequence (P05556 21-798): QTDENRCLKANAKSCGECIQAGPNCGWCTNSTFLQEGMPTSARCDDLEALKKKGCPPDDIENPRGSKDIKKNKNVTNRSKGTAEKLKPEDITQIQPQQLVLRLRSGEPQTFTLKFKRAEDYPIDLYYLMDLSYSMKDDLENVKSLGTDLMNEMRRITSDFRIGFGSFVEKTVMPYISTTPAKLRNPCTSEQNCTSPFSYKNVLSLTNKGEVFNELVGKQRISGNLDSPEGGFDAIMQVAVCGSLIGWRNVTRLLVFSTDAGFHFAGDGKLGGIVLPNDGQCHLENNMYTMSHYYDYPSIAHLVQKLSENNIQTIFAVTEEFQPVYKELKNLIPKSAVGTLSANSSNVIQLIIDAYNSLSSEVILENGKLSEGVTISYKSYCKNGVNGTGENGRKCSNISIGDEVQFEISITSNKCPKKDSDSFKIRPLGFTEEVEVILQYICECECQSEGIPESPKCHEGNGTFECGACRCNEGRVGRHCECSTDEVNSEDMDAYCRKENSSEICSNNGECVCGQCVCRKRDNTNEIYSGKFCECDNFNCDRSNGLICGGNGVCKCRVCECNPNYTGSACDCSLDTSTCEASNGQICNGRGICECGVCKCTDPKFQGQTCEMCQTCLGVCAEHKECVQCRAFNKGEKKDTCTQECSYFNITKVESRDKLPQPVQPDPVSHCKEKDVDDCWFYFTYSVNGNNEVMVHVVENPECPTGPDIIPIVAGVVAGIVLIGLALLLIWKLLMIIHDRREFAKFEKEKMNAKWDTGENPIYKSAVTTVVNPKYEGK

For `O=C(N[C@@H](Cc1ccc(-c2ccc(Cl)c(Cl)c2)cc1)C(=O)O)C1CCCN(c2ncnc(NC3Cc4ccccc4C3)c2F)C1` (stereo partly drawn) [Example 2.48], the IC50 – broadly, the concentration at which inhibition is half-maximal – was “C-D”. For the compound `O=C(N[C@@H](Cc1ccc(-c2ccc(Cl)c(Cl)c2)cc1)C(=O)O)C1CCCN(c2ncnc(NCCN3CCCC3)c2F)C1` (stereo partly drawn) [Example 2.49], the IC50 entry is recorded as “C-D”.

For `CCCCN(C)c1ncnc(N2CCCC(C(=O)N[C@@H](Cc3ccc(-c4ccc(Cl)c(Cl)c4)cc3)C(=O)O)C2)c1F` (stereo partly drawn) [Example 2.50], the IC50 result is on record as “C-D”.

On to `COc1ccccc1-c1ccc(C[C@H](NC(=O)C2CCCN(c3ncnc(NCc4ccccn4)c3F)C2)C(=O)O)cc1` (stereo partly drawn) [Example 2.51], for which, for the setting “read-out: IC50”, the IC50 lay within 500 to 2000 nM.

With `COc1ccccc1-c1ccc(C[C@H](NC(=O)C2CCCN(c3ncnc(N4CCCCC4)c3F)C2)C(=O)O)cc1` (stereo partly drawn) [Example 2.52], the concentration for half-maximal inhibition (IC50) result was “C-D”.

Take `COc1ccccc1-c1ccc(C[C@H](NC(=O)C2CCCN(c3ncnc(N4CCOCC4)c3F)C2)C(=O)O)cc1` (stereo partly drawn) [Example 2.53]: the IC50 (read-out: IC50) is 2000 to 10000 nM. In the case of `COc1ccccc1-c1ccc(C[C@H](NC(=O)C2CCCN(c3ncnc(N4CCNCC4)c3F)C2)C(=O)O)cc1` (stereo partly drawn) [Example 2.54], the concentration for half-maximal inhibition (IC50) (read-out: IC50) was at most 500 nM.

Regarding `CCCNc1ncnc(N2CCCC(C(=O)N[C@@H](Cc3ccc(-c4ccccc4OC)cc3)C(=O)O)C2)c1F` (stereo partly drawn) [Example 2.55], the IC50 (read-out: IC50) was at most 500 nM.

As to `COc1ccccc1-c1ccc(C[C@H](NC(=O)C2CCCN(c3ncnc(NC4Cc5ccccc5C4)c3F)C2)C(=O)O)cc1` (stereo partly drawn) [Example 2.56], the IC50 result is “B-C”. Regarding `CN1CCN(C(=O)Nc2ccc(C[C@H](NC(=O)C3CCCN(C(=O)Cc4cccs4)C3)C(=O)O)cc2)CC1` (stereo partly drawn) [Example 4.2], the IC50 (read-out: IC50) is at most 500 nM. Take `CN1CCN(C(=O)Nc2ccc(C[C@H](NC(=O)C3CCCN(C(=O)c4ccc(OC(F)(F)F)cc4)C3)C(=O)O)cc2)CC1` (stereo partly drawn) [Example 4.3]: the IC50 (read-out: IC50) was 500 to 2000 nM.

In the case of `O=C(N[C@@H](Cc1ccc(NC(=O)N2CCCCC2)cc1)C(=O)O)C1CCCN(C(=O)c2ccc(OC(F)(F)F)cc2)C1` (stereo partly drawn) [Example 4.4], the IC50 (read-out: IC50) was 2000 to 10000 nM. For the compound `CN1CCN(C(=O)Nc2ccc(C[C@H](NC(=O)C3CCCN(S(C)(=O)=O)C3)C(=O)O)cc2)CC1` (stereo partly drawn) [Example 4.5], the IC50 (read-out: IC50) was in the range of 500 to 2000 nM. Regarding `COc1ccc(S(=O)(=O)N2CCCC(C(=O)N[C@@H](Cc3ccc(NC(=O)N4CCN(C)CC4)cc3)C(=O)O)C2)cc1OC` (stereo partly drawn) [Example 4.6], the half-maximal inhibitory concentration (IC50) (read-out: IC50) was at most 500 nM. Still for that read-out and setting: then `O=C(N[C@@H](Cc1ccc(NC(=O)N2CCCCC2)cc1)C(=O)O)C1CCCN(S(=O)(=O)Cc2ccccc2)C1` (stereo partly drawn) [Example 4.7], with 500 to 2000 nM. On the same count and under the same terms, then `O=C(N[C@@H](Cc1ccc(NC(=O)N2CCN(c3ccccc3)CC2)cc1)C(=O)O)C1CCCN(C(=O)c2ccc(OC(F)(F)F)cc2)C1` (stereo partly drawn) [Example 4.8], with 2000 to 10000 nM. Regarding `O=C(N[C@@H](Cc1ccc(NC(=O)N2CCc3ccccc3C2)cc1)C(=O)O)C1CCCN(C(=O)Cc2cccs2)C1` (stereo partly drawn) [Example 4.9], the concentration for half-maximal inhibition (IC50) (read-out: IC50) was at most 500 nM. With `O=C(N[C@@H](Cc1ccc(NC(=O)N2CCN(C(c3ccccc3)c3ccccc3)CC2)cc1)C(=O)O)C1CCCN(C(=O)Cc2cccs2)C1` (stereo partly drawn) [Example 4.10], the IC50 (read-out: IC50) is at most 500 nM.

Consider `Cc1ccc(S(=O)(=O)N2CCCC(C(=O)N[C@@H](Cc3ccc(NC(=O)N4CCN(C)CC4)cc3)C(=O)O)C2)cc1` (stereo partly drawn) [Example 4.11], for which, under “read-out: IC50”, the IC50 is at most 500 nM.

As for `COc1ccccc1C(=O)N1CCCC(C(=O)N[C@@H](Cc2ccc(NC(=O)N3CCCCC3)cc2)C(=O)O)C1` (stereo partly drawn) [Example 4.12], the IC50 (read-out: IC50) was at most 500 nM. With `O=C(N[C@@H](Cc1ccc(NC(=O)N2CCOCC2)cc1)C(=O)O)C1CCCN(C(=O)c2ccc(OC(F)(F)F)cc2)C1` (stereo partly drawn) [Example 4.13], where the note is “read-out: IC50”, the IC50 is 500 to 2000 nM. With `COc1ccccc1C(=O)N1CCCC(C(=O)N[C@@H](Cc2ccc(NC(=O)N3CCN(c4ccccc4)CC3)cc2)C(=O)O)C1` (stereo partly drawn) [Example 4.14], the IC50 (read-out: IC50) is at most 500 nM. For `COc1ccccc1C(=O)N1CCCC(C(=O)N[C@@H](Cc2ccc(NC(=O)NCC(c3ccccc3)c3ccccc3)cc2)C(=O)O)C1` (stereo partly drawn) [Example 4.15], the half-inhibitory concentration (IC50) (read-out: IC50) fell in the range of 500 to 2000 nM.

As to `CN1CCN(C(=O)Nc2ccc(C[C@H](NC(=O)C3CCCN(S(=O)(=O)c4ccc5ccccc5c4)C3)C(=O)O)cc2)CC1` (stereo partly drawn) [Example 4.16], the 50% inhibitory concentration (IC50) (read-out: IC50) was at most 500 nM. On the same count and under the same terms, then `O=C(N[C@@H](Cc1ccc(NC(=O)N2CCOCC2)cc1)C(=O)O)C1CCCN(C(=O)OCc2ccccc2)C1` (stereo partly drawn) [Example 4.17], with 500 to 2000 nM; and `O=C(N[C@@H](Cc1ccc(NC(=O)N2CCN(c3ccccc3)CC2)cc1)C(=O)O)C1CCCN(C(=O)Cc2cccs2)C1` (stereo partly drawn) [Example 4.18], with at most 500 nM; and `COc1ccc(OC(=O)N2CCCC(C(=O)N[C@@H](Cc3ccc(NC(=O)N4CCN(c5ccccc5)CC4)cc3)C(=O)O)C2)cc1` (stereo partly drawn) [Example 4.19], with 2000 to 10000 nM. Consider `O=C(N[C@H](Cc1ccc(NC(=O)N2CCc3ccccc3C2)cc1)C(=O)O)C1CCCN(C(=O)c2ccc(OC(F)(F)F)cc2)C1` (stereo partly drawn) [Example 4.20], for which the IC50 (read-out: IC50) lay within 2000 to 10000 nM.

Turning to `O=C(N[C@@H](Cc1ccc(NC(=O)N2CCOCC2)cc1)C(=O)O)C1CCCN(C(=O)Cc2ccccc2)C1` (stereo partly drawn) [Example 4.21], the IC50 (read-out: IC50) was 500 to 2000 nM.

As for `COc1ccccc1C(=O)N1CCCC(C(=O)N[C@@H](Cc2ccc(NC(=O)N3CCOCC3)cc2)C(=O)O)C1` (stereo partly drawn) [Example 4.22], the IC50 (read-out: IC50) was at most 500 nM. Take `COc1ccc(CC(=O)N2CCCC(C(=O)N[C@H](Cc3ccc(NC(=O)N4CCc5ccccc5C4)cc3)C(=O)O)C2)cc1` (stereo partly drawn) [Example 4.23]: where the note is “read-out: IC50”, the IC50 lay in the range of 500 to 2000 nM. With `COc1ccccc1C(=O)N1CCCC(C(=O)N[C@@H](Cc2ccc(NC(=O)NC3CCN(Cc4ccccc4)CC3)cc2)C(=O)O)C1` (stereo partly drawn) [Example 4.24], the IC50 (read-out: IC50) was in the range of 500 to 2000 nM. For the compound `O=C(N[C@@H](Cc1ccc(NC(=O)N2CCOCC2)cc1)C(=O)O)C1CCCN(C(=O)Cc2cccs2)C1` (stereo partly drawn) [Example 4.25], the IC50 (read-out: IC50) is at most 500 nM. Take `O=C(Nc1ccc(C[C@H](NC(=O)C2CCCN(C(=O)Cc3ccccc3)C2)C(=O)O)cc1)NC1CCN(Cc2ccccc2)CC1` (stereo partly drawn) [Example 4.26]: the 50% inhibitory concentration (IC50) (read-out: IC50) lay in the range of 2000 to 10000 nM. With `COc1ccccc1C(=O)N1CCCC(C(=O)N[C@@H](Cc2ccc(NC(=O)N3CCc4ccccc4C3)cc2)C(=O)O)C1` (stereo partly drawn) [Example 4.27], the IC50 (read-out: IC50) was at most 500 nM.

As for `CN1CCN(C(=O)Nc2ccc(C[C@H](NC(=O)C3CCCN(S(=O)(=O)Cc4ccccc4)C3)C(=O)O)cc2)CC1` (stereo partly drawn) [Example 4.28], the IC50 (read-out: IC50) fell in the range of 500 to 2000 nM. For `O=C(N[C@@H](Cc1ccc(NC(=O)N2CCOCC2)cc1)C(=O)O)C1CCCN(S(=O)(=O)c2cc(Cl)cc(Cl)c2)C1` (stereo partly drawn) [Example 4.29], under “read-out: IC50”, the IC50 is at most 500 nM. Turning to `O=C(N[C@@H](Cc1ccc(NC(=O)N2CCOCC2)cc1)C(=O)O)C1CCCN(S(=O)(=O)c2ccc3ccccc3c2)C1` (stereo partly drawn) [Example 4.30], where the note is “read-out: IC50”, the IC50 is at most 500 nM. Turning to `CS(=O)(=O)N1CCCC(C(=O)N[C@@H](Cc2ccc(NC(=O)N3CCN(C(c4ccccc4)c4ccccc4)CC3)cc2)C(=O)O)C1` (stereo partly drawn) [Example 4.31], the IC50 (read-out: IC50) lay in the range of 500 to 2000 nM. `Cc1ccc(S(=O)(=O)N2CCCC(C(=O)N[C@@H](Cc3ccc(NC(=O)NC4CCN(Cc5ccccc5)CC4)cc3)C(=O)O)C2)cc1` (stereo partly drawn) [Example 4.32]: the IC50 (read-out: IC50) fell in the range of 2000 to 10000 nM. Consider `O=C(N[C@@H](Cc1ccc(NC(=O)N2CCc3ccccc3C2)cc1)C(=O)O)C1CCCN(S(=O)(=O)c2cccs2)C1` (stereo partly drawn) [Example 4.33], for which the half-maximal inhibitory concentration (IC50) (read-out: IC50) is at most 500 nM.

Turning to `COc1ccc(S(=O)(=O)N2CCCC(C(=O)N[C@@H](Cc3ccc(NC(=O)N4CCOCC4)cc3)C(=O)O)C2)cc1OC` (stereo partly drawn) [Example 4.34], the half-maximal inhibitory concentration (IC50) (read-out: IC50) was at most 500 nM.
